Among the data in ChEMBL document CHEMBL1641451, “Investigation of α-phenylnorstatine and α-benzylnorstatine as transition state isostere motifs in the search for new BACE-1 inhibitors” (Bioorg Med Chem, 2011) are IC50 values, retold here.

The target of the experiment is Beta-secretase 1 (Homo sapiens, UniProt P56817). As to the kind of experiment: Inhibition of BACE1.
Beta-secretase 1, sequence (P56817 whole entry): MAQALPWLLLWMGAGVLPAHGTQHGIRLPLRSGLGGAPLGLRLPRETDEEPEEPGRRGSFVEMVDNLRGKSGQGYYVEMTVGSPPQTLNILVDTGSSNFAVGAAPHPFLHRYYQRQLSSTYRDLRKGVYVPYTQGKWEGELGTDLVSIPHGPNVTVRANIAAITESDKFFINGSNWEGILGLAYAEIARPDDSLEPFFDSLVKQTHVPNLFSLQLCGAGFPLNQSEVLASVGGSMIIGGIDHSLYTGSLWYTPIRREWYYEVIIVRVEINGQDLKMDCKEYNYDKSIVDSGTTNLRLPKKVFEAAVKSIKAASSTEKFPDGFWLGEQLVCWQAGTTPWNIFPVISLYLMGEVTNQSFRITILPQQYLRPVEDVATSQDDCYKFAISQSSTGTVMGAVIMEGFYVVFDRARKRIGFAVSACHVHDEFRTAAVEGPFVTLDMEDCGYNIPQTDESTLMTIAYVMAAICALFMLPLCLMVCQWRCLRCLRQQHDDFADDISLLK

Take `CC(C)C[C@H](NC(=O)[C@@H](NC(=O)[C@@H](N)CNC(=O)c1nnn[nH]1)C(C)C)C(=O)NC[C@](O)(CCc1ccccc1)C(=O)Nc1cccc(C(=O)O)c1`: the IC50 (in general, the concentration that gives 50% inhibition) was 0.19 µM. Under `CC(C)C[C@H](NC(=O)[C@@H](NC(=O)[C@@H](N)CNC(=O)c1nnn[nH]1)C(C)C)C(=O)NCC(O)(Cc1ccccc1)C(=O)Nc1cccc(C(=O)O)c1` (stereo partly specified) stands 0.43 µM; under `CC(C)C[C@H](NC(=O)[C@@H](NC(=O)[C@@H](N)CNC(=O)c1nn[nH]n1)C(C)C)C(=O)NCC(O)(CCc1ccccc1)C(=O)Nc1cccc(C(=O)O)c1` (stereo partly specified), 0.4 µM; under `CC(C)C[C@H](NC(=O)[C@@H](NC(=O)[C@@H](N)CNC(=O)c1nn[nH]n1)C(C)C)C(=O)NC[C@@](O)(CCc1ccccc1)C(=O)Nc1cccc(C(=O)O)c1`, 1.4 µM. The same measure for `CC(C)[C@H](NC(=O)[C@@H](N)CNC(=O)c1nn[nH]n1)C(=O)N[C@@H](CC1CCCCC1)C(=O)NCC(O)(Cc1ccccc1)C(=O)Nc1cccc(C(=O)O)c1` (stereo partly specified): 0.68 µM. In the case of `CC(C)C[C@H](NC(=O)[C@H](Cc1ccccc1)NC(=O)[C@@H](N)CNC(=O)c1nnn[nH]1)C(=O)NC[C@](O)(CCc1ccccc1)C(=O)Nc1cccc(C(=O)O)c1`, the 50% inhibitory concentration (IC50) is more than 10 µM. With `CC(C)C[C@H](NC(=O)[C@H](Cc1ccccc1)NC(=O)[C@@H](N)CNC(=O)c1nnn[nH]1)C(=O)NC[C@@](O)(CCc1ccccc1)C(=O)Nc1cccc(C(=O)O)c1`, the half-maximal inhibitory concentration (IC50) is more than 10 µM.

`CCCC[C@H](NC(=O)[C@@H](N)CNC(=O)c1nnn[nH]1)C(=O)N[C@@H](CC(C)C)C(=O)NCC(O)(CCc1ccccc1)C(=O)Nc1cccc(C(=O)O)c1` (stereo partly specified): the IC50 is more than 10 µM. `CC(C)C[C@H](NC(=O)[C@H](CC(C)C)NC(=O)[C@@H](N)CNC(=O)c1nnn[nH]1)C(=O)NCC(O)(CCc1ccccc1)C(=O)Nc1cccc(C(=O)O)c1` (stereo partly specified) displayed an IC50 of more than 10 µM. Under `CC(C)C[C@H](NC(=O)C[C@@H](NC(=O)[C@@H](N)CNC(=O)c1nnn[nH]1)C(C)C)C(=O)NCC(O)(CCc1ccccc1)C(=O)Nc1cccc(C(=O)O)c1` (stereo partly specified) stands more than 10 µM; under `CC(C)C[C@H](NC(=O)[C@@H](NC(=O)[C@H](N)CNC(=O)c1nnn[nH]1)C(C)C)C(=O)NCC(O)(CCc1ccccc1)C(=O)Nc1cccc(C(=O)O)c1` (stereo partly specified), more than 10 µM; under `CC(C)C[C@H](NC(=O)[C@@H](NC(=O)[C@@H](N)CN)C(C)C)C(=O)NCC(O)(CCc1ccccc1)C(=O)Nc1cccc(C(=O)O)c1` (stereo partly specified), more than 10 µM.

As for `CC(C)C[C@H](NC(=O)[C@@H](NC(=O)[C@@H](CO)NC(=O)c1nn[nH]n1)C(C)C)C(=O)NCC(O)(CCc1ccccc1)C(=O)Nc1cccc(C(=O)O)c1` (stereo partly specified), the concentration for half-maximal inhibition (IC50) was more than 10 µM. As for `CC(C)C[C@H](NC(=O)[C@@H](NC(=O)[C@H](CO)NC(=O)c1nnn[nH]1)C(C)C)C(=O)NCC(O)(CCc1ccccc1)C(=O)Nc1cccc(C(=O)O)c1` (stereo partly specified), the IC50 was more than 10 µM. Consider `CC(C)C[C@H](NC(=O)[C@@H](NC(=O)[C@@H](N)CNC(=O)c1nn[nH]n1)C(C)C)C(=O)NCC(O)C(=O)Nc1cccc(C(=O)O)c1` (stereo partly specified), for which the IC50 amounted to 0.44 µM.

For `CC(C)[C@H](NC(=O)[C@@H](NC(=O)[C@@H](N)CNC(=O)c1nnn[nH]1)C(C)C)C(=O)NCC(O)C(=O)Nc1cccc(C(=O)O)c1` (stereo partly specified), the IC50 came out at 3 µM.

On to `CC(C)C[C@H](NC(=O)[C@@H](NC(=O)[C@@H](N)CN)C(C)C)C(=O)NCC(O)C(=O)Nc1cccc(C(=O)O)c1` (stereo partly specified), for which the half-inhibitory concentration (IC50) is more than 10 µM. The same measure for `CC(C)C[C@H](NC(=O)[C@@H](NC(=O)[C@H](N)CO)C(C)C)C(=O)NCC(O)C(=O)Nc1cccc(C(=O)O)c1` (stereo partly specified): more than 10 µM; for `CC(C)C[C@H](NC(=O)[C@@H](NC(=O)[C@H](N)CNC(=O)c1nn[nH]n1)C(C)C)C(=O)NCC(O)C(=O)Nc1cccc(C(=O)O)c1` (stereo partly specified): more than 10 µM.

Molecule `CC(C)[C@H](NC(=O)[C@@H](NC(=O)[C@@H](CO)NC(=O)c1nn[nH]n1)C(C)C)C(=O)NCC(O)C(=O)Nc1cccc(C(=O)O)c1` (stereo partly specified) registered a half-maximal inhibitory concentration (IC50) of more than 10 µM. Under `CC(C)C[C@H](NC(=O)[C@@H](NC(=O)[C@@H](N)CNC(=O)c1nnn[nH]1)C(C)C)C(=O)NCCC(=O)Nc1cccc(C(=O)O)c1` stands 0.87 µM; under `CC(C)C[C@H](NC(=O)[C@@H](NC(=O)[C@H](N)CNC(=O)c1nnn[nH]1)C(C)C)C(=O)NCCC(=O)Nc1cccc(C(=O)O)c1`, more than 10 µM; under `CC(C)C[C@H](NC(=O)[C@@H](NC(=O)[C@@H](CO)NC(=O)c1nnn[nH]1)C(C)C)C(=O)NCCC(=O)Nc1cccc(C(=O)O)c1`, more than 10 µM. `CC(C)C[C@H](NC(=O)[C@@H](NC(=O)[C@@H](N)CNC(=O)c1nn[nH]n1)C(C)C)C(=O)NCC(O)C(=O)O` (stereo partly specified) had an IC50 of 6.1 µM. The same measure for `CC(C)C[C@H](NC(=O)[C@@H](NC(=O)[C@H](CO)NC(=O)c1nnn[nH]1)C(C)C)C(=O)NCCC(=O)Nc1cccc(C(=O)O)c1`: more than 10 µM; for `CC(C)C[C@H](NC(=O)[C@@H](NC(=O)[C@@H](N)CNC(=O)c1nnn[nH]1)C(C)C)C(=O)O`: 4.4 µM.
